# Experimental data published in article PMC6917776, “Discovery of a chemical probe for PRDM9” (Nature Communications, 2019).
# Read-outs that look alike come from different tables or passages of the source.
# Assay: CelltiterGlo viability cell assay
# Format: cell-based
# Conditions: human
# Procedure, shortened: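 CelltiterGlo luminescence, day 3 and day 6 readouts; compound 0.01–30 μM; data normalized to DMSO; n=3 biological replicates ± SEM.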
# [1] = CAL851 breast cancer cells, CAL851, 3 day, read-out: viability Average
# [2] = CAL851 breast cancer cells, CAL851, 3 day, read-out: viability Replicate 1
# [3] = CAL851 breast cancer cells, CAL851, 3 day, read-out: viability Replicate 2
# [4] = CAL851 breast cancer cells, CAL851, 3 day, read-out: viability Replicate 3
# [5] = CAL851 breast cancer cells, CAL851, 6 day, read-out: viability Average
# [6] = CAL851 breast cancer cells, CAL851, 6 day, read-out: viability Replicate 1
# [7] = CAL851 breast cancer cells, CAL851, 6 day, read-out: viability Replicate 2
# [8] = CAL851 breast cancer cells, CAL851, 6 day, read-out: viability Replicate 3
# [9] = CAL851 cells, CAL851, 3 day, read-out: viability Replicate 1
# [10] = CAL851 cells, CAL851, 3 day, read-out: viability Replicate 2
# [11] = HCC1143 breast cancer cells, HCC1143, 3 day, read-out: viability Average
# [12] = HCC1143 breast cancer cells, HCC1143, 3 day, read-out: viability Replicate 1
# [13] = HCC1143 breast cancer cells, HCC1143, 3 day, read-out: viability Replicate 2
# [14] = HCC1143 breast cancer cells, HCC1143, 3 day, read-out: viability Replicate 3
smiles,measurement,setting,value
COc1cc(OC)cc(-c2noc(N3CCN(C)C4(CCN(c5ccnc(C)c5)CC4)C3)n2)c1 [MRK-740],"viability at 3 day, 0.01 µM",[1],95.7%
same,"viability at 3 day, 0.01 µM",[2],91.6%
same,"viability at 3 day, 0.01 µM",[3],94.6%
same,"viability at 3 day, 0.01 µM",[4],101%
same,"viability at 3 day, 0.03 µM",[1],94.4%
same,"viability at 3 day, 0.03 µM",[2],93.2%
same,"viability at 3 day, 0.03 µM",[3],92.2%
same,"viability at 3 day, 0.03 µM",[4],97.9%
same,"viability at 3 day, 0.3 µM",[1],98.9%
same,"viability at 3 day, 0.3 µM",[4],104%
same,"viability at 3 day, 1 µM",[1],98%
same,"viability at 3 day, 1 µM",[2],88.2%
same,"viability at 3 day, 1 µM",[3],93.7%
same,"viability at 3 day, 1 µM",[4],112%
same,"viability at 3 day, 3 µM",[1],88%
same,"viability at 3 day, 3 µM",[2],88.9%
same,"viability at 3 day, 3 µM",[3],78.6%
same,"viability at 3 day, 3 µM",[4],96.5%
same,"viability at 3 day, 9.5 µM",[1],72%
same,"viability at 3 day, 9.5 µM",[2],69.7%
same,"viability at 3 day, 9.5 µM",[3],68.9%
same,"viability at 3 day, 9.5 µM",[4],77.4%
same,"viability at 3 day, 30 µM",[1],21.2%
same,"viability at 3 day, 30 µM",[2],18.4%
same,"viability at 3 day, 30 µM",[3],24.5%
same,"viability at 3 day, 30 µM",[4],20.7%
same,"viability at 6 day, 0.01 µM",[5],113%
same,"viability at 6 day, 0.01 µM",[6],109%
same,"viability at 6 day, 0.01 µM",[7],118%
same,"viability at 6 day, 0.01 µM",[8],113%
same,"viability at 6 day, 0.03 µM",[5],114%
same,"viability at 6 day, 0.03 µM",[6],103%
same,"viability at 6 day, 0.03 µM",[7],114%
same,"viability at 6 day, 0.03 µM",[8],126%
same,"viability at 6 day, 0.1 µM",[5],129%
same,"viability at 6 day, 0.1 µM",[6],116%
same,"viability at 6 day, 0.1 µM",[7],126%
same,"viability at 6 day, 0.1 µM",[8],145%
same,"viability at 6 day, 0.3 µM",[5],118%
same,"viability at 6 day, 0.3 µM",[6],121%
same,"viability at 6 day, 0.3 µM",[7],117%
same,"viability at 6 day, 0.3 µM",[8],115%
same,"viability at 6 day, 1 µM",[5],117%
same,"viability at 6 day, 1 µM",[6],109%
same,"viability at 6 day, 1 µM",[7],108%
same,"viability at 6 day, 1 µM",[8],134%
same,"viability at 6 day, 3 µM",[5],100%
same,"viability at 6 day, 3 µM",[6],93.2%
same,"viability at 6 day, 3 µM",[7],104%
same,"viability at 6 day, 3 µM",[8],104%
same,"viability at 6 day, 9.5 µM",[5],73.1%
same,"viability at 6 day, 9.5 µM",[6],59.9%
same,"viability at 6 day, 9.5 µM",[7],75.6%
same,"viability at 6 day, 9.5 µM",[8],83.9%
same,"viability at 6 day, 30 µM",[5],14.9%
same,"viability at 6 day, 30 µM",[6],22.8%
same,"viability at 6 day, 30 µM",[7],11.9%
same,"viability at 6 day, 30 µM",[8],10%
same,"viability at 3 day, 0.1 µM","CAL851 cells, CAL851, 3 day, read-out: viability Average",99.9%
same,"viability at 3 day, 0.1 µM",[9],97.5%
same,"viability at 3 day, 0.1 µM",[10],91.8%
same,"viability at 3 day, 0.1 µM","CAL851 cells, CAL851, 3 day, read-out: viability Replicate 3",111%
same,"viability at 3 day, 0.3 µM",[9],94.7%
same,"viability at 3 day, 0.3 µM",[10],97.8%
same,"viability at 3 day, 0.01 µM",[11],96.2%
same,"viability at 3 day, 0.01 µM",[12],100%
same,"viability at 3 day, 0.01 µM",[13],94.8%
same,"viability at 3 day, 0.01 µM",[14],93.8%
same,"viability at 3 day, 0.03 µM",[11],94.8%
same,"viability at 3 day, 0.03 µM",[12],92.9%
same,"viability at 3 day, 0.03 µM",[13],94.1%
same,"viability at 3 day, 0.03 µM",[14],97.3%
same,"viability at 3 day, 0.3 µM",[11],98.1%
same,"viability at 3 day, 0.3 µM",[12],99.7%
same,"viability at 3 day, 0.3 µM",[13],97.7%
same,"viability at 3 day, 0.3 µM",[14],96.9%
same,"viability at 3 day, 1 µM",[11],97.8%
same,"viability at 3 day, 1 µM",[12],101%
same,"viability at 3 day, 1 µM",[13],93.9%
same,"viability at 3 day, 1 µM",[14],98.8%
same,"viability at 3 day, 3 µM",[11],92.9%
same,"viability at 3 day, 3 µM",[12],94.7%
same,"viability at 3 day, 3 µM",[13],91%
same,"viability at 3 day, 3 µM",[14],93%
same,"viability at 3 day, 9.5 µM",[11],71.7%
same,"viability at 3 day, 9.5 µM",[12],73.8%
same,"viability at 3 day, 9.5 µM",[13],69.4%
same,"viability at 3 day, 9.5 µM",[14],72%
same,"viability at 3 day, 30 µM",[11],25.7%
same,"viability at 3 day, 30 µM",[12],27.4%
same,"viability at 3 day, 30 µM",[13],27.1%
same,"viability at 3 day, 30 µM",[14],22.6%
same,"viability at 6 day, 0.03 µM","HCC1143 breast cancer cells, HCC1143, 6 day, read-out: viability Average",101%
same,"viability at 6 day, 0.03 µM","HCC1143 breast cancer cells, HCC1143, 6 day, read-out: viability Replicate 1",96.8%
same,"viability at 6 day, 0.03 µM","HCC1143 breast cancer cells, HCC1143, 6 day, read-out: viability Replicate 2",101%
